Entries after “also recorded” stand apart in the source; their conditions may differ. Bridge positions count the residues as written; N and C are the ends. Peptide text beside a SMILES is read from it.
Key:
mKv1.2 = molecular target: T1, mKv1.2 (Mus musculus, UniProt P63141); test: Whole-cell patch-clamp, exogenous Kv1.2 in HEK293T cells; assay type: cell-based
T1 construct: expressed in transfected cells; host or cells: HEK293T, vector pIRES2-EGFP (bicistronic, EGFP not fused)
Procedure: (§1) Mouse spinal columns were removed and placed in ice cold HBSS, then laminectomies were performed and bilateral DRG were dissected out. After removal of connective tissues, DRG were transferred to a 1 ml Ca^2+/Mg^2+-free HBSS containing 2 μl saturated NaHCO3, 0.35 mg L-cysteine and 20 U papain (Worthington, Lakewood, NJ, USA), and incubated at 37 °C for 10 min. The suspension of DRG was centrifuged, the supernatant was removed, 1 ml Ca^2+/Mg^2+-free HBSS containing 4 mg collagenase type II and 1.25 mg dispase type II (Worthington) was added and incubated at 37 °C for 10 min. After digestion, neurons were pelleted, suspended in neurobasal medium containing 2% B-27 supplement, 1% L-glutamine, 100 U/ml penicillin plus 100 μg/ml streptomycin, and 50 ng/ml nerve growth factor, plated on a 12 mm coverslip coated with poly-L-lysine (10 μg/ml) and cultured under a humidified atmosphere of 5% CO2/95% air at 37 °C for 18–24 h before use. Jurkat E6-1 T cells (ATCC TIB152) and HEK293T cells (ATCC ACS4500) were maintained in RPMI medium 1640 (Invitrogen, Carlsbad, CA, USA) and Dulbecco’s modified Eagle’s medium (DMEM) (Life Technologies,GrandIsland, NY, USA), supplemented with 10% fetal bovine serum (Life Technologies), 100 units/ml penicillin, 100 μg/ml streptomycin, respectively. Cells were cultured in a humidified incubator at 37 °C with 5% CO2. The cDNAs encoding mKv1.1, mKv1.2, mKv1.3, mNav1.4, mNav1.5 and mNav1.7 were subcloned into the XhoI/BamHI sites of a bicistronic vector, pIRES2-EGFP (Clontech, USA), then transiently transfected into HEK293-T cells using Lipofectamine 2000 (Invitrogen) for electrophysiological experiments.
Whole-cell patch-clamp recordings were performed using an EPC 9 amplifier (HEKA Elektronik, Lambrecht/Pfalz, Germany) at room temperature (22–24 °C). Pipettes pulled from borosilicate glass (BF 150-86-10; Sutter Instrument Company, Novato, CA, USA) had resistances of 2–4 MΩ when filled with the internal solution. The internal pipette solution for recording Kv currents contained: KCl 140 mM, MgCl2 1 mM, EGTA 1 mM, Na2ATP 3 mM, HEPES 10 mM (pH 7.3 with KOH); for recording Na currents contained: CsCl 100 mM, CsF 40 mM, MgCl2 2 mM, HEPES 10 mM, EGTA 10 mM, D-Glucose 10 mM, Na2ATP 3 mM (pH 7.3 with CsOH). The external solution for recording Kv currents contained: KCl 5 mM, NaCl 140 mM, HEPES 10 mM, CaCl2 2 mM, MgCl2 1 mM, D-Glucose 10 mM (pH 7.4 with NaOH); for recording Na currents contained: NaCl 132 mM, KCl 5.4 mM, CaCl2 1.8 mM, MgCl2 0.8 mM, HEPES 10 mM, D-Glucose 5 mM (pH 7.4 with NaOH). Kv currents were elicited by + 50 mV, 400 ms depolarizing pulse from the holding potential of − 60 mV every 20 s, and Na currents were elicited by + 10 mV, 100 ms depolarizing pulse from the holding potential of − 60 mV every 10 s. […]

[1] = system: endogenous sodium channels expressed by DRG neurons; test: Whole-cell patch-clamp, endogenous sodium channels of DRG neurons; assay type: cell-based, mouse; details: 1 μM; +10 mV 100 ms pulse from -60 mV every 10 s
Procedure: as §1, with “The cDNAs encoding mKv1.1, mKv1.2, mKv1.3, mNav1.4, mNav1.5 and mNav1.7 were subcloned into the XhoI/BamHI sites of a bicistronic vector, pIRES2-EGFP (Clontech, USA), then transiently transfected into HEK293-T cells using Lipofectamine 2000 (Invitrogen) for electrophysiological experiments.” left out

mKv1.3 = molecular target: T2, mKv1.3 (Mus musculus, UniProt P16390); test: Whole-cell patch-clamp, exogenous Kv1.3 in HEK293T cells; assay type: cell-based
T2 construct: expressed in transfected cells; host or cells: HEK293T, vector pIRES2-EGFP (bicistronic, EGFP not fused)
T2 sequence (P16390 whole entry, the tested form may be a part): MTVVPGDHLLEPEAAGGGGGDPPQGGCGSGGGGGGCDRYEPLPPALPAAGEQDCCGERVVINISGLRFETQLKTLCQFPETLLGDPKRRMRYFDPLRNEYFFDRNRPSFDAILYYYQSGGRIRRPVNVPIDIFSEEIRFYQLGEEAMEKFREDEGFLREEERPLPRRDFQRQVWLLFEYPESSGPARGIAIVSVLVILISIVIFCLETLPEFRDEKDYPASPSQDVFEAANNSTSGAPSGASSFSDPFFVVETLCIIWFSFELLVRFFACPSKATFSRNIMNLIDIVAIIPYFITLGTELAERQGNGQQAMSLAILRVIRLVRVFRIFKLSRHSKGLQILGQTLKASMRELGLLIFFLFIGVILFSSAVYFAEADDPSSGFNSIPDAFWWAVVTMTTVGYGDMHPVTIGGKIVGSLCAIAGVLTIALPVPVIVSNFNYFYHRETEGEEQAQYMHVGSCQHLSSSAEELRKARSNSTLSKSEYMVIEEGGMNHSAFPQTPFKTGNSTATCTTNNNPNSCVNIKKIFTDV
Procedure: as §1, with “The cDNAs encoding mKv1.1, mKv1.2, mKv1.3, mNav1.4, mNav1.5 and mNav1.7 were subcloned into the XhoI/BamHI sites of a bicistronic vector, pIRES2-EGFP (Clontech, USA), then transiently transfected into HEK293-T cells using Lipofectamine 2000 (Invitrogen) for electrophysiological experiments.” left out

[2] = system: Ca^2+ influx in Jurkat T cells; test: Live cell Ca^2+ imaging (Fura-2) in Jurkat T cells; assay type: cell-based, human; details: for inhibition of Ca^2+ influx / free calcium concentration (in words): 10 μM Ktx-Sp2, 3 min pre-treatment, 10 μM CPA, then 2 mM Ca^2+
Procedure: Jurkat T cells were loaded with 4 μM Fura-2 AM (Life Technologies) for 60 min at 37 °C. Cells were then washed 3 times and incubated in Hank’s Balanced Salt Solution (HBSS) for 30 min at room temperature before use. Fluorescence at 340 nm and 380 nm excitation wavelengths was recorded on an inverted Nikon Ti-E microscope equipped with 340, 360 and 380 nm excitation filter wheels using NIS-Elements imaging software (Nikon Instruments Inc., Melville, NY, USA). Fura-2 ratios (F340/F380) reflect changes in [Ca^2+]i upon stimulation. Data were obtained from 100 to 250 cells in time-lapse images from each coverslip.
To test this hypothesis we performed live cell Ca^2+ imaging using the Ca^2+ indicator dye Fura-2 to determine the effect of Ktx-Sp2 on [Ca^2+]i in the presence of intracellular Ca^2+ store depletion by cyclopiazonic acid (CPA), an inhibitor of the sarcoplasmic reticulum Ca^2+-ATPase. […] When 2 mM Ca^2+ was added to the Ca^2+-free HBSS, we observed a large Ca^2+ influx into the cells. […] At 10 μM, Ktx-Sp2 decreased the F340/F380 ratio from 0.14 ± 0.02 to 0.05 ± 0.01 (n = 278) (Fig. 5b).

mKv1.1 = molecular target: T3, mKv1.1 (Mus musculus, UniProt P16388); test: Whole-cell patch-clamp, exogenous Kv1.1 in HEK293T cells; assay type: cell-based
T3 construct: expressed in transfected cells; host or cells: HEK293T, vector pIRES2-EGFP (bicistronic, EGFP not fused)
T3 sequence (P16388 whole entry, the tested form may be a part): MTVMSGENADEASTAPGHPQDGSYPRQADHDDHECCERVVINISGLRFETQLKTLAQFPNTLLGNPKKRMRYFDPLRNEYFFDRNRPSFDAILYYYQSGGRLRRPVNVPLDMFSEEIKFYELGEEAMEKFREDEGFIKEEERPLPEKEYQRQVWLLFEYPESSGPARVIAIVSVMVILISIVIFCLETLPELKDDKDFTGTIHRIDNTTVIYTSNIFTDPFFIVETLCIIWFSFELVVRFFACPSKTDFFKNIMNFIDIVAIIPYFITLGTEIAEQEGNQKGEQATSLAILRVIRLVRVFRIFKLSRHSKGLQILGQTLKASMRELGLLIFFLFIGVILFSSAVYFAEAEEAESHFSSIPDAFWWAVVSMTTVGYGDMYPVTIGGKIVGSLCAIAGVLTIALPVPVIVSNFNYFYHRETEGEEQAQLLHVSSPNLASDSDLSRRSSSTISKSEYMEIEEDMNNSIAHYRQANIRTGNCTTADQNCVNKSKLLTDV
Procedure: as §1
Whole-cell patch-clamp recordings were performed using an EPC 9 amplifier (HEKA Elektronik, Lambrecht/Pfalz, Germany) at room temperature (22–24 °C). Pipettes pulled from borosilicate glass (BF 150-86-10; Sutter Instrument Company, Novato, CA, USA) had resistances of 2–4 MΩ when filled with the internal solution. […]

[3] = +50 mV 400 ms pulse from -60 mV every 20 s, room temperature (22–24 °C), mean ± SEM

T1 sequence (P63141 whole entry, the tested form may be a part): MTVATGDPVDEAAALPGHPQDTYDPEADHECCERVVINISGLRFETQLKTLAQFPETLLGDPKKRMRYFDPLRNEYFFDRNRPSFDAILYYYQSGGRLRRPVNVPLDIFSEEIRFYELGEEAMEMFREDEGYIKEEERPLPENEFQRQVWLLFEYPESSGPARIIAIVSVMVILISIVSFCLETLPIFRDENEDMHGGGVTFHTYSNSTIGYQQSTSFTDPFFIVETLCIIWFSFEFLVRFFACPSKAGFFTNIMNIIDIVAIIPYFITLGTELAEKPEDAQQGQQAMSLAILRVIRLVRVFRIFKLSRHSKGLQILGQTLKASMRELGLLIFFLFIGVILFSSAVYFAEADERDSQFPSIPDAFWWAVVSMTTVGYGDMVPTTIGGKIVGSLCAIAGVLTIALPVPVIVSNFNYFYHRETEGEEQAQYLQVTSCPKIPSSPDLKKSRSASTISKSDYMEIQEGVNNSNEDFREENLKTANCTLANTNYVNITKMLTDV

`CSCC[C@@H]1NC(=O)[C@@H]2CSSC[C@H](NC(=O)[C@H](CCCCN)NC(=O)[C@H](C)NC(=O)CNC(=O)[C@H](Cc3c[nH]cn3)NC(=O)[C@H](CC(C)C)NC(=O)[C@@H]3CCCN3C(=O)[C@@H](N)CO)C(=O)N[C@@H](CO)C(=O)N[C@@H](CO)C(=O)N[C@@H](CO)C(=O)N[C@@H](CC(N)=O)C(=O)N[C@@H](CCC(N)=O)C(=O)N[C@H]3CSSC[C@H](NC(=O)[C@H](CCCNC(=N)N)NC(=O)CNC(=O)[C@H](CC(N)=O)NC1=O)C(=O)N[C@@H](CCCNC(=N)N)C(=O)N[C@H](C(=O)N[C@@H](Cc1ccc(O)cc1)C(=O)NCC(=O)O)CSSC[C@H](NC(=O)[C@@H]1CCCN1C(=O)[C@H](CCCNC(=N)N)NC(=O)[C@H]([C@@H](C)O)NC3=O)C(=O)N[C@@H](CCCNC(=N)N)C(=O)N[C@@H](Cc1ccc(O)cc1)C(=O)NCC(=O)NCC(=O)NCC(=O)N[C@@H]([C@@H](C)O)C(=O)N[C@@H](Cc1c[nH]cn1)C(=O)NCC(=O)N[C@@H](CCCCN)C(=O)N2` [Ktx-Sp2] (H-SPLHGAKCSSSNQCTRPCRYGGGTHGKCMNGRCRCYG-OH; disulfide 8-28, 14-33, 18-35 (inferred); N-terminus and C-terminus assumed) was tested, and the IC50 (mKv1.2; [3]) was 56.9 ± 2.32 nM, the “blocking activity on Kv1.3 relative to Kv1.2 (Discussion)” value (mKv1.2; Discussion section) was 4 times and the “blocking activity on Kv1.2 channel (rounded, Discussion)” value (mKv1.2; electrophysiology) was “about 57 nM”. The “blocking of Kv1.2 (in words)” value (mKv1.2; exogenous channel) was “effectively block; also recorded: high blocking activity”, the “effect on endogenous sodium channels of DRG neurons” value [1] was “almost had no effect” and the IC50 (mKv1.3; +50 mV 400 ms pulse from -60 mV every 20 s, room temperature (22–24 °C), mean ± SEM, n = 8, read-out: IC50 for mKv1.3-mediated currents) was 14.7 ± 1.98 nM. For the same molecule, the “blocking of Kv1.3 (in words)” value (mKv1.3; exogenous channel) was “the blocking activity for Kv1.3 was relatively high; also recorded: the blocking activity on Kv1.3 channel is the strongest”, the “inhibition of Ca^2+ influx / free calcium concentration (in words)” value [2] was “significantly reduce the free calcium concentration in Jurkat T cells; also recorded: obvious inhibition of Ca^2+ influx” and the “inhibition of Ca^2+ influx / free calcium concentration (in words)” value ([2]; listed as Ktx-sp2) was “effectively reduce the concentration of free Ca^2+ in Jurkat T cells”. The “F340/F380 ratio (net change induced by 2 mM extracellular Ca^2+)” value ([2]; 10 μM Ktx-Sp2, pre-treatment 3 min, store depletion by 10 μM CPA, decreased from 0.14 ± 0.02 without peptide, n = 278, ****P ≤ 0.0001) was 0.05 ± 0.01, the IC50 (mKv1.1; [3]) was 485 ± 25.5 nM and the “blocking activity on Kv1.3 relative to Kv1.1 (Discussion)” value (mKv1.1; Discussion section) was 33 times.

Reference: article PMC6915869, “Immunosuppressive effects of a novel potassium channel toxin Ktx-Sp2 from Scorpiops Pocoki” (Cell & Bioscience, 2019)
